Experiments:
[1] = molar heat capacity at constant pressure; conditions: Liquid, Flow calorimetry
[2] = Liquid; for mass density: Vibrating tube method; for viscosity: Concentric cylinders viscometry

CCC(C)O (stereo not drawn) [butan-2-ol]
Conditions | mass density [kg/m3] | molar heat capacity at constant pressure [J/K/mol] | viscosity [mPa·s]
[1], 293.15 K, 100 kPa | – | 189.1 | –
[1], 293.15 K, 5000 kPa | – | 187.1 | –
[1], 293.15 K, 10000 kPa | – | 185.5 | –
[1], 293.15 K, 15000 kPa | – | 185.2 | –
[1], 293.15 K, 20000 kPa | – | 183.6 | –
[1], 293.15 K, 25000 kPa | – | 182.7 | –
[1], 313.15 K, 100 kPa | – | 214.9 | –
[1], 313.15 K, 5000 kPa | – | 213.1 | –
[1], 313.15 K, 10000 kPa | – | 211.1 | –
[1], 313.15 K, 15000 kPa | – | 209.4 | –
[1], 313.15 K, 20000 kPa | – | 207.2 | –
[1], 313.15 K, 25000 kPa | – | 204.9 | –
[2], 273.15 K, 100 kPa | 822.3 | – | –
[2], 273.15 K, 1000 kPa | 822.7 | – | –
[2], 273.15 K, 2000 kPa | 823.4 | – | –
[2], 273.15 K, 5000 kPa | 825.4 | – | –
[2], 273.15 K, 10000 kPa | 828.7 | – | –
[2], 273.15 K, 15000 kPa | 831.8 | – | –
[2], 273.15 K, 20000 kPa | 834.7 | – | –
[2], 273.15 K, 30000 kPa | 840.4 | – | –
[2], 273.15 K, 40000 kPa | 845.7 | – | –
[2], 273.15 K, 50000 kPa | 850.7 | – | –
[2], 273.15 K, 60000 kPa | 855.4 | – | –
[2], 273.15 K, 70000 kPa | 859.9 | – | –
[2], 273.15 K, 80000 kPa | 864.3 | – | –
[2], 273.15 K, 90000 kPa | 868.4 | – | –
[2], 273.15 K, 100000 kPa | 872.4 | – | –
[2], 273.15 K, 110000 kPa | 876.3 | – | –
[2], 273.15 K, 120000 kPa | 879.9 | – | –
[2], 273.15 K, 130000 kPa | 883.5 | – | –
[2], 273.15 K, 140000 kPa | 887.2 | – | –
[2], 293.15 K, 100 kPa | 806.3 | – | 3.725
[2], 293.15 K, 1000 kPa | 807 | – | –
[2], 293.15 K, 2000 kPa | 807.8 | – | –
[2], 293.15 K, 5000 kPa | 810 | – | –
[2], 293.15 K, 10000 kPa | 813.6 | – | –
[2], 293.15 K, 15000 kPa | 817 | – | –
[2], 293.15 K, 20000 kPa | 820.2 | – | –
[2], 293.15 K, 30000 kPa | 826.5 | – | –
[2], 293.15 K, 40000 kPa | 832.3 | – | –
[2], 293.15 K, 50000 kPa | 837.7 | – | –
[2], 293.15 K, 60000 kPa | 842.8 | – | –
[2], 293.15 K, 70000 kPa | 847.7 | – | –
[2], 293.15 K, 80000 kPa | 852.3 | – | –
[2], 293.15 K, 90000 kPa | 856.7 | – | –
[2], 293.15 K, 100000 kPa | 860.9 | – | –
[2], 293.15 K, 110000 kPa | 865 | – | –
[2], 293.15 K, 120000 kPa | 868.8 | – | –
[2], 293.15 K, 130000 kPa | 872.7 | – | –
[2], 293.15 K, 140000 kPa | 876.3 | – | –
[2], 303.15 K, 100 kPa | – | – | 2.555
[2], 313.15 K, 100 kPa | 789.4 | – | 1.814
[2], 313.15 K, 1000 kPa | 790.1 | – | –
[2], 313.15 K, 2000 kPa | 791 | – | –
[2], 313.15 K, 5000 kPa | 793.5 | – | –
[2], 313.15 K, 10000 kPa | 797.5 | – | –
[2], 313.15 K, 15000 kPa | 801.4 | – | –
[2], 313.15 K, 20000 kPa | 805.1 | – | –
[2], 313.15 K, 30000 kPa | 811.9 | – | –
[2], 313.15 K, 40000 kPa | 818.3 | – | –
[2], 313.15 K, 50000 kPa | 824.1 | – | –
[2], 313.15 K, 60000 kPa | 829.6 | – | –
[2], 313.15 K, 70000 kPa | 835 | – | –
[2], 313.15 K, 80000 kPa | 839.9 | – | –
[2], 313.15 K, 90000 kPa | 844.6 | – | –
[2], 313.15 K, 100000 kPa | 849 | – | –
[2], 313.15 K, 110000 kPa | 853.3 | – | –
[2], 313.15 K, 120000 kPa | 857.5 | – | –
[2], 313.15 K, 130000 kPa | 861.5 | – | –
[2], 313.15 K, 140000 kPa | 865.4 | – | –
[2], 323.15 K, 100 kPa | – | – | 1.331
[2], 333.15 K, 100 kPa | 770.7 | – | 1.007
[2], 333.15 K, 1000 kPa | 771.6 | – | –
[2], 333.15 K, 2000 kPa | 772.6 | – | –
[2], 333.15 K, 5000 kPa | 775.5 | – | –
[2], 333.15 K, 10000 kPa | 780.1 | – | –
[2], 333.15 K, 15000 kPa | 784.4 | – | –
[2], 333.15 K, 20000 kPa | 788.6 | – | –
[2], 333.15 K, 30000 kPa | 796.2 | – | –
[2], 333.15 K, 40000 kPa | 803.2 | – | –
[2], 333.15 K, 50000 kPa | 809.6 | – | –
[2], 333.15 K, 60000 kPa | 815.7 | – | –
[2], 333.15 K, 70000 kPa | 821.4 | – | –
[2], 333.15 K, 80000 kPa | 826.7 | – | –
[2], 333.15 K, 90000 kPa | 831.8 | – | –
[2], 333.15 K, 100000 kPa | 836.6 | – | –
[2], 333.15 K, 110000 kPa | 841.2 | – | –
[2], 333.15 K, 120000 kPa | 845.5 | – | –
[2], 333.15 K, 130000 kPa | 849.8 | – | –
[2], 333.15 K, 140000 kPa | 853.9 | – | –
